According to PMC11931052, “Efficacy of dispirotripiperazine PDSTP in a golden Syrian hamster model of SARS-CoV-2 infection” (Frontiers in Microbiology, 2025):
Several values for one entry are separate records, joined by “and”; a condition that tells them apart may be missing. Identical values can stand only once. Entries after “also recorded” stand apart in the source; their conditions may differ.

What was measured:
[1] = Immunotoxicity study, long-term topical application; format: in vivo
Text: Conclusion: PDSTP compound has no effect on humoral immunity and functional activity of macrophages when applied topically for 30 days in doses up to 100 TD.

[2] = tested on: Salmonella typhimurium strains TA 97, TA 98 and TA 100; experiment: Ames test (Salmonella/microsome test); details: 0.1 to 1000 µg/ cup; MA+ and MA-
Method: PDSTP doses tested: 0.1 to 1000 µg/ cup.
Test subjects: Salmonella typhimurium strains TA 97, TA 98 and TA 100.
Metabolic activation: MA+ and MA-.

SARS-COV-2 PV10734 [3] = experiment: Penetration assay in Vero cells; format: cell-based; details: at higher concentrations
Method: A penetration assay was performed with small modifications according to the method reported earlier ([Chang et al., 2012]). A 24-well tissue culture plate was seeded with Vero cells (3 × 10^5 cells/well), which were then incubated overnight at 37°C in a 5% CO2 atmosphere. The cells were pre-chilled on ice for 1 h, and the medium was removed. The cells were infected with 100 PFU of SARS-CoV-2 PV10734 on ice for 2 h. The medium containing the unbound virus was then removed. Various concentrations of PDSTP (100–0.8 μM) in the medium were added, and the cells were incubated at 37°C for 1 h to trigger endocytosis of the virus. The infected cells were then treated with alkaline PBS (pH 11) for 1 min to inactivate viruses that had not penetrated the cells. Acidic PBS (pH 3) was then added to neutralize the mixture. The neutralized medium was removed; the cells were overlaid with methylcellulose in media and then were incubated at 37°C. After the 72-h incubation period, the cells were stained, and the plaques were determined by counting.

[4] = Acute toxicity, intragastric administration, rats; format: in vivo; details: maximum dose 5000 mg/kg
[5] = tested on: SARS-CoV-2 ancestral PV10734 strain; experiment: Yield reduction assay in Calu-3 cells, SARS-CoV-2 ancestral PV10734 strain; format: cell-based; details: PDSTP 20 and 4 μM, day 3 post-infection, p < 0.0001
[6] = Cytotoxicity (MTT test) in Vero E6 cell line; format: cell-based, African Green Monkey (Cercopithecus aethiops); details: African green monkey, mean ± SD, three independent experiments
Method: (§1) The microtetrazolium test (MTT test) was used to study the cytotoxicity of the compounds. Vero cells were seeded in 96-well plates at an initial density of 3×10^5 cells/mL, in Gibco Dulbecco’s Modified Eagle Medium supplemented with L-glutamine and 25 mg/L kanamycin, and 10 % fetal bovine serum (FBS) (DMEM, Thermo Fisher Scientific, Waltham, MA USA). Cell cultures were then incubated at 37 °C in a 5 % CO2 atmosphere, in the absence or presence of serial dilutions of test compounds. The test medium used for the cytotoxic assay as well as for the antiviral assay contained 1 % of the appropriate serum. Cell viability was determined after 72 h at 37 °C by the MTT method as previously reported. The cell viability was expressed as a percentage of the control. The 50% cytotoxic concentration (CC50) of each compound was defined as the concentration of the compound that reduced the absorbance (OD570) of the treated cells to 50% when compared with that of untreated cells. CC50 mean values were calculated from at least three independent experiments.

[7] = Allergenicity study, guinea pigs; format: in vivo; details: intradermal sensitizing dose 40 µg into the ear; epicutaneous and conjunctival testing
[8] = Acute toxicity, intravenous administration, rats; details: both sexes, rat, in vivo, Rats (M/F)
[9] = Acute toxicity, topical application, mice; format: in vivo; details: for LD50: acute toxicity, topical application
SARS-COV-2 PV10734 [10] = experiment: Virucidal activity assay; details: 20 µM; 4°C and 37°C for 2 hours
Method: PDSTP (20 µM) was incubated with 3×10^5 PFU/mL of SARS-COV-2 PV10734 at either 4 and 37 °C for 2 hours. The mixture of the viral sample without a test compound was used as an untreated control. At the end of the incubation period, samples were serially diluted in media and titers were determined on Vero-76 cells at high dilutions, at which the compound was not active. Virus titers were determined by plaque assay in Vero-76 cells.

[11] = Acute toxicity, topical application, rats; format: in vivo; details: for LD50: acute toxicity, topical application
[12] = Reproductive toxicity: postnatal development of F1 generation offspring; format: in vivo, white laboratory rats; details: female rats received PDSTP from the 6th day of gestation to delivery
Method: PDSTP doses tested: 10% solution
Test subjects: white laboratory rats of both sexes
During the study of postnatal development and fertility of F1 generation offspring born from female rats that received PDSTP from the 6th day of gestation to delivery, the rates of physical development, the rate of maturation of sensory-motor reflexes and emotional-motor behavior, as well as fertility were evaluated in comparison with rats born from intact females.

[13] = tested on: SARS-CoV-2 clinical isolate 35245; experiment: Plaque reduction assay, SARS-CoV-2 35245; format: cell-based; details: Severe acute respiratory syndrome coronavirus 2, read-out: Antiviral activity IC50 against coronaviruses, SARS-CoV-2 clinical isolate 35245, PR
[14] = tested on: SARS-CoV-2 B.1.1 GR MM1/2020/Aug-21 clinical isolate; experiment: Golden Syrian hamster model of SARS-CoV-2-induced pneumonia; format: in vivo; details: for Body weight: day 0
SARS-COV-2 PV10734 [15] = experiment: Time-of-addition and cell pre-treatment assay in Vero cells; format: cell-based
[16] = Cytotoxicity (MTT test) in Vero-76 cells; format: cell-based, African Green Monkey (Cercopithecus aethiops); details: African green monkey
Method: as §1

[17] = maximum regulated amount applied to the skin
[18] = 10 mg/kg, severity score 0 to 6

## Cc1nc(N2CC[N+]3(CC2)CC[N+]2(CCNCC2)CC3)c([N+](=O)[O-])c(N2CC[N+]3(CC2)CC[N+]2(CCNCC2)CC3)n1.Cl.Cl.O.O.O.O.O.O.O.O.O.[Cl-].[Cl-].[Cl-].[Cl-] [PDSTP, 3,3′-(2-methyl-5-nitropyrimidine-4,6-diyl)bis-3,12-diaza-6,9-diazonia-dispiro[5.2.5.2]hexadecane tetrachloride dihydrochloride nonahydrate]
[1]; long-term topical applications, immunosuppression only at maximum dose of 100 TD, reversible 14 days after withdrawal
  Effect on cellular immunity: tends to suppress cellular immunity
[1]; topically for 30 days in doses up to 100 TD
  Effect on humoral immunity and functional activity of macrophages: no effect
[2]
  Mutagenic activity (Ames test): no mutagenic activity
SARS-COV-2 PV10734 [3]
  Viral inhibition, penetration experiment: only modest viral inhibition
[4]
  Clinical signs: piloerection and diarrhea, deterioration of hair coat, decreased motor activity, and decreased body weight
  Mortality: The death of animals was not recorded
[5]
  Reduction of viral titer: ~100 fold
[6]
  CC50 at 72 h: 183 ± 40.5 µM
[7]
  Sensitizing properties: no sensitizing properties
[8]
  LD50: 140 mg/kg
[9]
  LD50: greater than 31.25 mg/cm^2
[9]; [17]
  Toxicity and local irritant effects on skin: No manifestations of toxicity and local irritant effects were observed
[9]; mouse, in vivo, topical or ocular, 2500 mg/kg, read-out: LD50
  LD50: > 2500 mg/kg
SARS-COV-2 PV10734 [10]
  Virucidal activity (direct impact on viral infectivity): no direct impact; also recorded: lacks virucidal activity
[11]
  LD50: greater than 31.25 mg/cm^2
[11]; [17]
  Toxicity and local irritant effects on skin: No manifestations of toxicity and local irritant effects were observed
[11]; rat, in vivo, topical or ocular, 2500 mg/kg, read-out: LD50
  LD50: > 2500 mg/kg
[12]
  Effect on fertility of F1 generation offspring: No statistically significant effect
  Effect on postnatal development of F1 generation offspring: does not adversely affect the studied parameters
[13]
  IC50: 21.4 ± 7.4 µM
[14]; 10 mg/kg
  Animals with completely reduced SARS-CoV-2-induced lung pathology: three
  Body weight: 100,7±0,3 gram
[14]; [18]
  Animals with lung severity score "mild": two
  Animals with lung severity score "none": three out of six
[14]; 20 mg/kg
  Animals with completely reduced SARS-CoV-2-induced lung pathology: two
  Body weight: 94,1±0,4 gram
[14]; 40 mg/kg
  Body weight: 96,7±0,3 gram
[14]; 10 or 20 mg/kg
  Alveolar edema (histopathology): moderate
[14]; […], not statistically significant
  Reduction in lung viral titer vs negative control: 1.5 log10
[14]; […], statistically non-significant
  Reduction of viral RNA copy levels in lung tissue vs vehicle: 2.2 log10
[14]; all animal groups
  Core body temperature: within the normal range
  Mortality: None of the animals died
[14]; hamster, in vivo
  Body weight loss: no more than 10%
  Reduction of viral RNA copy levels in lung tissue vs vehicle: 1.6 log10 and 2.0 log10
  Viral RNA copy levels in turbinate tissue: statistically significantly diminished
SARS-COV-2 PV10734 [15]
  Antiviral activity, pre-treatment and early stages of infection: exhibited antiviral activity
  Inhibitory effect at the later stages of infection: barely noticeable
[16]
  CC50 at 72 h: > 100 µM
